The subject of experiment [1] is staphyloxanthin (STX) biosynthesis in S. aureus. Kind of experiment: Staphyloxanthin biosynthesis inhibition assay. The class given is cell-based, Staphylococcus aureus. As to conditions: Staphylococcus aureus. Here is the method: The question next arises: how potent are these compounds in inhibiting STX biosynthesis in S. aureus? We thus treated S. aureus bacteria with serially diluted compounds at 37° C. for 3 days, after which the STX pigment was extracted with methanol. Optical densities were measured at 450 nm and IC50 values for inhibition of pigment formation for each compound were calculated using a standard dose-response curve. The rank ordered IC50 values of the 38 compounds investigated are shown in Table 7 and dose-response curves of representative compounds are shown in FIG. 2.
The S. aureus strain used was the WT clinical isolate (Pig1) (4). S. aureus was cultured in THB (1 mL) in the presence of inhibitor compounds for 72 h, in duplicate. Cells were then centrifuged and washed twice with PBS. STX was extracted with MeOH and the O.D. was determined at 450 nm using a Perkin Elmer MBA 2000 (Norwalk, Conn.) spectrophotometer.

In experiment [2] the test system is S. aureus. Particulars: non-pigmented S. aureus after treatment versus normally pigmented; cited from earlier work.
The target of experiment [3] is S. aureus CrtM (dehydrosqualene synthase) (Staphylococcus aureus, UniProt A9JQL9). Kind of experiment: CrtM enzyme inhibition assay. As to conditions: read-out: IC50 against CrtM.
In experiment [4] the test system is S. aureus. Particulars: treated mice compared to a control group; cited from earlier work.
Experiment [5] relates to S. aureus. Particulars: non-pigmented S. aureus after treatment versus normally pigmented; cited from earlier work. This is another data set of the same source.

Structures are written as SMILES. pIC50: −log10 of the molar value. Like-named read-outs stand apart in the source and are kept apart here.

Sequence of S. aureus CrtM (dehydrosqualene synthase) (A9JQL9 whole entry): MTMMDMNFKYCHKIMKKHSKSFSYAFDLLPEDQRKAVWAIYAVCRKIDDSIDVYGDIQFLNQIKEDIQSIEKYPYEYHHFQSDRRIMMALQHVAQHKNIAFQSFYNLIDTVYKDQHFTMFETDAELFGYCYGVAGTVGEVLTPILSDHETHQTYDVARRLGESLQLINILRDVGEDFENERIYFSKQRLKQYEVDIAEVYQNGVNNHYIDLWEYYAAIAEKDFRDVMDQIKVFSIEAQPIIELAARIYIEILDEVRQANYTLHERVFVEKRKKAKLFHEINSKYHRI

For the compound `O=P([O-])([O-])C(CCCc1cccc(Oc2ccccc2)c1)S(=O)(=O)[O-].[K+].[K+].[K+]` (centres unmarked) [Compound 1, 1-Phosphono-4-(3-phenoxyphenyl)butylsulfonic acid tripotassium salt, reference compound], the pIC50 in experiment [1] (72 h, read-out: Staphyloxanthin IC50) is 6.96; in experiment [1] (read-out: IC50 (STX)), 6.96; in experiment [1] (read-out: IC50(STX)), 6.96; in experiment [1] (read-out: IC50 for STX biosynthesis), 6.96; in experiment [3], 5.10. Besides, the “survival in freshly isolated human whole blood” value in the experiment on S. aureus [2] was “less able to survive in freshly isolated human whole blood”. Moreover, the “bacterial counts in kidneys reduced / bacterial growth inhibited” value with S. aureus [4] is listed as 98%. Besides, the “susceptibility to killing by hydrogen peroxide” value in the experiment on S. aureus [5] is recorded as “much more susceptible to killing by hydrogen peroxide”.

As usually defined, the pIC50 is the IC50 on a negative log10 scale, so that one unit is a factor of ten.

Values taken from US20120022024A1, “ANTI-BACTERIAL COMPOSITIONS AND METHODS INCLUDING TARGETING VIRULENCE FACTORS OF STAPHYLOCOCCUS AUREUS” (priority 2009, published 2012).
